≈ marks a conversion by molar mass, not a printed value.
Tests used:
Staphylococcus aureus [1] = assay: Antibacterial activity against methicillin-resistant Staphylococcus aureus; format: functional
[2] = Cytotoxicity against human Hep2 cell line after 72 hrs; format: cell-based, HEp-2; conditions: Hep2 cells
Staphylococcus aureus [3] = assay: Antibacterial activity against vancomycin intermediate-resistant Staphylococcus aureus F988647; format: functional
Staphylococcus aureus [4] = assay: Antibacterial activity against vancomycin-resistant Staphylococcus aureus F800238; format: functional
Staphylococcus aureus [5] = assay: Antibacterial activity against vancomycin intermediate-resistant Staphylococcus aureus F977210; format: functional
Staphylococcus aureus [6] = assay: Antibacterial activity against Staphylococcus aureus ATCC 33591 infected in CD1 mouse at 10 mg/kg, sc; format: functional; conditions: route subcutaneous
Staphylococcus aureus [7] = assay: Antibacterial activity against vancomycin-resistant Staphylococcus aureus F800236; format: functional
Staphylococcus aureus [8] = assay: Antibacterial activity against vancomycin intermediate-resistant Staphylococcus aureus F977218; format: functional
Staphylococcus aureus [9] = assay: Antibacterial activity against vancomycin intermediate-resistant Staphylococcus aureus F977215; format: functional
Staphylococcus aureus [10] = assay: Antibacterial activity against Staphylococcus aureus; format: functional
Staphylococcus aureus [11] = assay: Antibacterial activity against vancomycin intermediate-resistant Staphylococcus aureus F988653; format: functional
Staphylococcus aureus [12] = assay: Antibacterial activity against vancomycin intermediate-resistant Staphylococcus aureus F988644; format: functional
Staphylococcus aureus [13] = assay: Antibacterial activity against vancomycin intermediate-resistant Staphylococcus aureus F988650; format: functional
Staphylococcus aureus [14] = assay: Antibacterial activity against vancomycin-sensitive Staphylococcus aureus F988633; format: functional
Staphylococcus aureus [15] = assay: Antibacterial activity against methicillin-sensitive Staphylococcus aureus; format: functional
[16] = Cytotoxicity against human HepG2 cells after 72 hrs; format: cell-based
DNA gyrase = DNA gyrase (Staphylococcus aureus, UniProt P0A0K8+P20831); assay: Inhibition of Staphylococcus aureus DNA gyrase by supercoiling assay; format: protein-complex assay
Staphylococcus aureus [17] = assay: Antibacterial activity against fluoroquinolone-resistant Staphylococcus aureus 273/T/T/T; format: functional
[18] = target: DNA topoisomerase 2-alpha (Homo sapiens) (UniProt P11388)
Description: Inhibition of human topoisomerase 2 by DNA cleavage assay

Hepatocyte = assay: Cytotoxicity against rat hepatocytes after 48 hrs; format: functional
[19] = Inhibition of Staphylococcus aureus topoisomerase 4 by decatenation assay
Staphylococcus aureus [20] = assay: Antibacterial activity against Staphylococcus aureus ATCC 33591 infected in CD1 mouse at 20 mg/kg, sc; format: functional; conditions: route subcutaneous

Chain of DNA topoisomerase 2-alpha (Homo sapiens) (P11388 whole entry): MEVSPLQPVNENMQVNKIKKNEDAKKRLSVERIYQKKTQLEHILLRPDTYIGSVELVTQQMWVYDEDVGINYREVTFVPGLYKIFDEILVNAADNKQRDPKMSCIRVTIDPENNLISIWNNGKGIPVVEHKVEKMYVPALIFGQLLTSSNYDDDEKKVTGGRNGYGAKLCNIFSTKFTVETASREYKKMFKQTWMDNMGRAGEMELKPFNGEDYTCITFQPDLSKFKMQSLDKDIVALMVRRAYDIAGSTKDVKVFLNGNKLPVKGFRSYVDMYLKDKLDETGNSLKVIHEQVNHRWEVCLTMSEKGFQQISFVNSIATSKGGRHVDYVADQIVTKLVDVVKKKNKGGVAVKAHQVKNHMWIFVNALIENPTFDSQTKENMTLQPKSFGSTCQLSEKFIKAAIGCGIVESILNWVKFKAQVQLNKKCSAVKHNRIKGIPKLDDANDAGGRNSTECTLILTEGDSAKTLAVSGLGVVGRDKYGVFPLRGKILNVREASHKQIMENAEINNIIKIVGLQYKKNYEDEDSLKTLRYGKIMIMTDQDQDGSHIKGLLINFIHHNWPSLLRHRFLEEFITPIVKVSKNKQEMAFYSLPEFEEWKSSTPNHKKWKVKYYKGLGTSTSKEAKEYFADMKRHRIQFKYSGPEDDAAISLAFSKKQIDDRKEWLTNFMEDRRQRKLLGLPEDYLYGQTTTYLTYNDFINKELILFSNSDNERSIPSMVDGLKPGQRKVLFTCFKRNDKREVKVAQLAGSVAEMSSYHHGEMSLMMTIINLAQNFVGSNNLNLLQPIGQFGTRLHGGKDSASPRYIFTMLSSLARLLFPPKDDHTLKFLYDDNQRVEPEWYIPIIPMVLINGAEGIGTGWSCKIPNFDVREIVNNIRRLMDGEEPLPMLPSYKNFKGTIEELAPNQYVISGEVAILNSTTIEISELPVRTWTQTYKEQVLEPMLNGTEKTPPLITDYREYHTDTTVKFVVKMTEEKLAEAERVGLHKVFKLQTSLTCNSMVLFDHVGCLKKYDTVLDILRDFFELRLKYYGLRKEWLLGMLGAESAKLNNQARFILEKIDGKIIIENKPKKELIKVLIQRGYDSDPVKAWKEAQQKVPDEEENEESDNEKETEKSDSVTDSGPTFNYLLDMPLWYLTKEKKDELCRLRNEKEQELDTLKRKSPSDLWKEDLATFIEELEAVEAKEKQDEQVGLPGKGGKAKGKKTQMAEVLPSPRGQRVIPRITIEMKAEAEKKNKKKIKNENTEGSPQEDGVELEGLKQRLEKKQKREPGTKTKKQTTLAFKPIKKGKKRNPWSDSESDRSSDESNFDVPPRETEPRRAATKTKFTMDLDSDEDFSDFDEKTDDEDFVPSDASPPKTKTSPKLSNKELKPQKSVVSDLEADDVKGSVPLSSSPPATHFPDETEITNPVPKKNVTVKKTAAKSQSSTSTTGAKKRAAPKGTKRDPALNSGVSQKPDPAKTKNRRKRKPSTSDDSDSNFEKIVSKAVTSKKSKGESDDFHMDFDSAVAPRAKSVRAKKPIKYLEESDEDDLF
Chain of DNA gyrase (P0A0K8 whole entry): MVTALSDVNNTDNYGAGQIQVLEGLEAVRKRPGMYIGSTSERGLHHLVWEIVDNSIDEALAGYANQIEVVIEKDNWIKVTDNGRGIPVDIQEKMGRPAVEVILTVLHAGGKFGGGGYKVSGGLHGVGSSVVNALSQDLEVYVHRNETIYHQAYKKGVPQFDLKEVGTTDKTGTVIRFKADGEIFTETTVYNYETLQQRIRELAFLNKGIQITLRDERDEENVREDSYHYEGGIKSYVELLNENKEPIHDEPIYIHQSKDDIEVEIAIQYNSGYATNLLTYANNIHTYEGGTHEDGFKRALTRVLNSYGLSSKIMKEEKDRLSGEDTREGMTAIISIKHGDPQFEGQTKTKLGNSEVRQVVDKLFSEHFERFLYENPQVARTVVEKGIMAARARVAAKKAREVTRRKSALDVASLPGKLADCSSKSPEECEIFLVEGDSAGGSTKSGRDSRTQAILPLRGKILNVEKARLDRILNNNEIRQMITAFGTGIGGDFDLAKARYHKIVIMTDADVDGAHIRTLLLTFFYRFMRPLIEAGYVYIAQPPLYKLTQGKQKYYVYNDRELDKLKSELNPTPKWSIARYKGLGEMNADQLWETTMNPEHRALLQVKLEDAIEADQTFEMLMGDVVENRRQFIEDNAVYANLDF
Chain of DNA gyrase (P20831 whole entry): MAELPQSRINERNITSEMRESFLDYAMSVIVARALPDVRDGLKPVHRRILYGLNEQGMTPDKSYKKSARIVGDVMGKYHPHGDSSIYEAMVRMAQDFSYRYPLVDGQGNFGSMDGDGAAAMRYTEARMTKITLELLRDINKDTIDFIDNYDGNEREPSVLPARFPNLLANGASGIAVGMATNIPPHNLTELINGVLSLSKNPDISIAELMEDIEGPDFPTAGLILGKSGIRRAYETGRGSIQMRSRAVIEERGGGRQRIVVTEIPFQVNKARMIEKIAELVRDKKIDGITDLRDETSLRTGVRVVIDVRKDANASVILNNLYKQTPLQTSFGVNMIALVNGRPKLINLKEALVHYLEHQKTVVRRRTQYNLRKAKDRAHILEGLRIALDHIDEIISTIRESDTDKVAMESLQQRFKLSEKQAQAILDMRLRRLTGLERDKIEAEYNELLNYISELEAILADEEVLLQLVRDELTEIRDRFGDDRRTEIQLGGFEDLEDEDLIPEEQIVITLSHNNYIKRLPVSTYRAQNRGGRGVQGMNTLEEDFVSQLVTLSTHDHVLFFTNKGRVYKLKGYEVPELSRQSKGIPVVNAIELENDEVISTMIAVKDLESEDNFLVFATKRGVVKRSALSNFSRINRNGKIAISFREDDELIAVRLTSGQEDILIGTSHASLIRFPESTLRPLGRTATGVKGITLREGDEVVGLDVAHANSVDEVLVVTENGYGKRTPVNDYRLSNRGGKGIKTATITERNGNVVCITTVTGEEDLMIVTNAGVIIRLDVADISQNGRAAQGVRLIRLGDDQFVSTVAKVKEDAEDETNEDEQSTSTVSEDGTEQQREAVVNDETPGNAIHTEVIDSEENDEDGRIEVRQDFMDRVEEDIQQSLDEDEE

O=c1[nH]sc2c1c(=O)c1cc(F)c(-c3ccc4c(c3)CCNC4)cc1n2C1CC1
MIC (Staphylococcus aureus [1]): 2 µg/mL (≈ 4.91 µM) | CC50 at 72 h [2]: 7 µM

COc1c(-c2ccc3c(c2)CNC3)ccc2c(=O)c3c(=O)[nH]sc3n(C3CC3)c12
MIC (Staphylococcus aureus [1]): 2 µg/mL (≈ 4.93 µM) | CC50 at 72 h [2]: 97 µM

O=c1[nH]sc2c1c(=O)c1cc(F)c(-c3ccc4c(c3)CNC4)cc1n2C1CC1
MIC (Staphylococcus aureus [1]): 2 µg/mL (≈ 5.08 µM) | CC50 at 72 h [2]: 8 µM

CN[C@H](CC(C)C)C(=O)N[C@H]1C(=O)N[C@@H](CC(N)=O)C(=O)N[C@H]2C(=O)N[C@H]3C(=O)N[C@H](C(=O)N[C@H](C(=O)O)c4cc(O)cc(O)c4-c4cc3ccc4O)[C@H](O)c3ccc(c(Cl)c3)Oc3cc2cc(c3O[C@@H]2O[C@H](CO)[C@@H](O)[C@H](O)[C@H]2O[C@H]2C[C@](C)(N)[C@H](O)[C@H](C)O2)Oc2ccc(cc2Cl)[C@H]1O [VANCOMYCIN]
MIC (Staphylococcus aureus [3]): 8 µg/mL (≈ 5.52 µM) | MIC (Staphylococcus aureus [4]): > 32 µg/mL | MIC (Staphylococcus aureus [5]): 8 µg/mL (≈ 5.52 µM) | Log10 cfu (Staphylococcus aureus [6]): 0.31 | MIC (Staphylococcus aureus [7]): > 32 µg/mL | MIC (Staphylococcus aureus [8]): 8 µg/mL (≈ 5.52 µM) | MIC (Staphylococcus aureus [9]): 8 µg/mL (≈ 5.52 µM) | MIC50 (Staphylococcus aureus [1]): 1 µg/mL (≈ 0.69 µM) | MIC90 (Staphylococcus aureus [1]): 8 µg/mL (≈ 5.52 µM) | MIC50 (Staphylococcus aureus [10]): 1 µg/mL (≈ 0.69 µM) | MIC90 (Staphylococcus aureus [10]): 8 µg/mL (≈ 5.52 µM) | MIC (Staphylococcus aureus [11]): 8 µg/mL (≈ 5.52 µM) | MIC (Staphylococcus aureus [12]): 8 µg/mL (≈ 5.52 µM) | MIC (Staphylococcus aureus [13]): 8 µg/mL (≈ 5.52 µM)

COc1c(-c2ccc3c(c2)CCN(C)C3)ccc2c(=O)c3c(=O)[nH]sc3n(C3CC3)c12
MIC (Staphylococcus aureus [1]): 8 µg/mL (≈ 18.5 µM) | CC50 at 72 h [2]: > 100 µM

COc1c(-c2ccc3c(c2)CCN(C)C3)c(F)cc2c(=O)c3c(=O)[nH]sc3n(C3CC3)c12
MIC (Staphylococcus aureus [1]): 4 µg/mL (≈ 8.86 µM) | CC50 at 72 h [2]: 61 µM

COc1c(-c2cc(C)nc(C)c2)ccc2c(=O)c3c(=O)[nH]sc3n(C3CC3)c12
MIC (Staphylococcus aureus [1]): 1 µg/mL (≈ 2.54 µM) | CC50 at 72 h [2]: > 100 µM

C[C@H]1NCc2cc(-c3cc4c(cc3F)c(=O)c3c(=O)[nH]sc3n4C3CC3)ccc21
MIC (Staphylococcus aureus [1]): 1 µg/mL (≈ 2.45 µM) | CC50 at 72 h [2]: 2 µM

C[C@H]1COc2c(N3CCN(C)CC3)c(F)cc3c(=O)c(C(=O)O)cn1c23.C[C@H]1COc2c(N3CCN(C)CC3)c(F)cc3c(=O)c(C(=O)O)cn1c23.O [LEVOFLOXACIN]
MIC50 (Staphylococcus aureus [1]): > 16 µg/mL | MIC50 (Staphylococcus aureus [10]): 16 µg/mL | MIC90 (Staphylococcus aureus [10]): > 16 µg/mL | MIC (Staphylococcus aureus [14]): 16 µg/mL

COc1c(-c2ccncc2)c(F)cc2c(=O)c3c(=O)[nH]sc3n(C3CC3)c12
MIC (Staphylococcus aureus [1]): 1 µg/mL (≈ 2.61 µM) | CC50 at 72 h [2]: > 100 µM

CO/N=C1\CN(c2nc3c(cc2F)c(=O)c(C(=O)O)cn3C2CC2)CC1CN (centres undefined) [GEMIFLOXACIN]
MIC (Staphylococcus aureus [15]): 0.03 µg/mL (≈ 0.077 µM) | MIC (Staphylococcus aureus [1]): 2 µg/mL (≈ 5.14 µM) | CC50 at 72 h [16]: 35 µM | IC50 (DNA gyrase): 5.6 µM | MIC (Staphylococcus aureus [17]): 4 µg/mL (≈ 10.3 µM) | EC2 [18]: > 150 µM | CC50 (Hepatocyte): > 100 µM | CC50 at 72 h [2]: 46 µM | IC50 [19]: 0.3 µM

COc1c(-c2cc(C)nc(C)c2)c(F)cc2c(=O)c3c(=O)[nH]sc3n(C3CC3)c12
MIC (Staphylococcus aureus [15]): 0.004 µg/mL (≈ 0.00972 µM) | MIC (Staphylococcus aureus [1]): 0.25 µg/mL (≈ 0.608 µM) | MIC50 (Staphylococcus aureus [1]): 0.12 µg/mL (≈ 0.292 µM) | MIC90 (Staphylococcus aureus [1]): 1 µg/mL (≈ 2.43 µM) | MIC50 (Staphylococcus aureus [10]): 0.12 µg/mL (≈ 0.292 µM) | MIC90 (Staphylococcus aureus [10]): 0.5 µg/mL (≈ 1.22 µM) | CC50 at 72 h [16]: 65 µM | IC50 (DNA gyrase): 3.2 µM | MIC (Staphylococcus aureus [17]): 0.25 µg/mL (≈ 0.608 µM) | EC2 [18]: 55 µM | CC50 (Hepatocyte): > 100 µM | CC50 at 72 h [2]: 64 µM | IC50 [19]: 0.9 µM

COc1c(-c2ccc3c(c2)CN[C@@H]3C)ccc2c(=O)c3c(=O)[nH]sc3n(C3CC3)c12
MIC (Staphylococcus aureus [1]): 2 µg/mL (≈ 4.77 µM) | CC50 at 72 h [2]: 33 µM

CC(=O)NC[C@H]1CN(c2ccc(N3CCOCC3)c(F)c2)C(=O)O1 [LINEZOLID]
Log10 cfu (Staphylococcus aureus [20]): 0.2 | MIC50 (Staphylococcus aureus [1]): 2 µg/mL (≈ 5.93 µM) | MIC90 (Staphylococcus aureus [1]): 2 µg/mL (≈ 5.93 µM) | MIC50 (Staphylococcus aureus [10]): 2 µg/mL (≈ 5.93 µM) | MIC90 (Staphylococcus aureus [10]): 2 µg/mL (≈ 5.93 µM) | MIC (Staphylococcus aureus [14]): > 16 µg/mL

— ChEMBL document CHEMBL1139232, “Isothiazoloquinolones with enhanced antistaphylococcal activities against multidrug-resistant strains: effects of structural modifications at the 6-, 7-, and 8-positions” (J Med Chem, 2007)
